# Key:
# Assay type in all cases: in vivo
# [1] = system: spring wheat, TRZAS Triso; test: Tank-mix; post-emergence: crop damage by herbicide with/without safener mefenpyr-diethyl
# Method in brief: (§1)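 Visual percent crop damage (0–100 relative to untreated plants) assessed 1–3 weeks post-application. Plants in sandy loam were sprayed at the 1–3-leaf stage with herbicide with or without safener at several rates, water volume 300 l/ha.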
# [2] = system: spring barley, HORVS Montoya; test: as above
# Method in brief: as §1
# [3] = system: spring wheat, TRZAS Triso; test: Seed treatment with safener; post-emergence herbicide, crop damage; details: for HER effect + SAF [%] (crop damage) / Reduction [%] / Reduction [Difference]: mefenpyr-diethyl 0.5 g a.i./kg seed; for HER effect [%] (crop damage, herbicide without safener): no safener
# Method in brief: (§2)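 Crop injury was rated visually in % at 10 and 21 days after post-emergence spraying at the 2-leaf stage. The herbicide was a WP in 300 l/ha water plus 1 l/ha MERO. Plants grew from seed either safener-coated at stated g a.i./kg rates via a milk-diluted slurry, or untreated.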
# [4] = system: spring barley, HORVS Montoya; test: as above; details: 21 DAT; for HER effect + SAF / Reduction [%] / Reduction [Difference]: mefenpyr-diethyl 0.5 g a.i./kg seed
# Method in brief: as §2
# [5] = HER 8 g a.i./ha + mefenpyr-diethyl 50 g a.i./ha, 10 DAT
# [6] = HER 32 g a.i./ha + mefenpyr-diethyl 100 g a.i./ha, 10 DAT
# [7] = HER 8 g a.i./ha + mefenpyr-diethyl 50 g a.i./ha, 21 DAT
# [8] = HER 32 g a.i./ha + mefenpyr-diethyl 100 g a.i./ha, 21 DAT
# [9] = HER 32 g a.i./ha post-emergence
# [10] = HER 1 g a.i./ha + mefenpyr-diethyl 50 g a.i./ha, 21 DAT
# [11] = HER 1 g a.i./ha + mefenpyr-diethyl 50 g a.i./ha, 10 DAT
# [12] = HER 16 g a.i./ha post-emergence
# [13] = HER 1.5 g a.i./ha + mefenpyr-diethyl 50 g a.i./ha, 21 DAT
# [14] = HER 6 g a.i./ha + mefenpyr-diethyl 50 g a.i./ha, 21 DAT
# [15] = HER 24 g a.i./ha + mefenpyr-diethyl 100 g a.i./ha, 21 DAT
# [16] = herbicide alone 24 g a.i./ha, 21 DAT
# [17] = HER 24 g a.i./ha post-emergence
structure (smiles),measurement,setting,value
COC(=O)C1C=CC(NC(=O)C2(C)CC(c3cccc(F)c3)=NO2)C1 (centres unmarked) [Example 1.20],HER effect + SAF,[1]; [5],0%
same,Reduction [%],[1]; [5],100%
same,Reduction [Difference],[1]; [5],20
same,HER effect + SAF,[1]; [6],30%
same,Reduction [%],[1]; [6],40%
same,Reduction [Difference],[1]; [6],20
same,HER effect,"[1]; herbicide alone 8 g a.i./ha, 10 DAT",20%
same,HER effect,"[1]; herbicide alone 32 g a.i./ha, 10 DAT",50%
same,HER effect + SAF,[2]; [7],0%
same,Reduction [%],[2]; [7],100%
same,Reduction [Difference],[2]; [7],30
same,HER effect + SAF,[2]; [8],40%
same,Reduction [%],[2]; [8],50%
same,Reduction [Difference],[2]; [8],40
same,HER effect,"[2]; herbicide alone 8 g a.i./ha, 21 DAT",30%
same,HER effect,"[2]; herbicide alone 32 g a.i./ha, 21 DAT",80%
same,HER effect + SAF [%] (crop damage),"[3]; 10 DAT, HER dose 8 g a.i./ha",0%
same,Reduction [%],"[3]; 10 DAT, HER dose 8 g a.i./ha",100%
same,Reduction [Difference],"[3]; 10 DAT, HER dose 8 g a.i./ha",20
same,"HER effect [%] (crop damage, herbicide without safener)","[3]; 10 DAT, HER dose 8 g a.i./ha",20%
same,HER effect + SAF [%] (crop damage),"[3]; 10 DAT, HER dose 32 g a.i./ha",0%
same,Reduction [%],"[3]; 10 DAT, HER dose 32 g a.i./ha",100%
same,Reduction [Difference],"[3]; 10 DAT, HER dose 32 g a.i./ha",50
same,"HER effect [%] (crop damage, herbicide without safener)","[3]; 10 DAT, HER dose 32 g a.i./ha",50%
same,HER effect + SAF,[4]; HER 8 g a.i./ha post-emergence,10%
same,Reduction [%],[4]; HER 8 g a.i./ha post-emergence,67%
same,Reduction [Difference],[4]; HER 8 g a.i./ha post-emergence,20
same,HER effect + SAF,[4]; [9],20%
same,Reduction [%],[4]; [9],75%
same,Reduction [Difference],[4]; [9],60
same,HER effect,[4]; herbicide alone 8 g a.i./ha post-emergence,30%
same,HER effect,[4]; herbicide alone 32 g a.i./ha post-emergence,80%
CC1(C(=O)NC2C=CC(C(=O)O)C2)CC(c2cc(F)cc(F)c2)=NO1 (centres unmarked) [Example 1.36],HER effect + SAF,[1]; [10],20%
same,Reduction [%],[1]; [10],76%
same,Reduction [Difference],[1]; [10],65
same,HER effect,"[1]; herbicide alone 1 g a.i./ha, 21 DAT",85%
same,HER effect + SAF,[2]; [11],60%
same,Reduction [%],[2]; [11],25%
same,Reduction [Difference],[2]; [11],20
same,HER effect,"[2]; herbicide alone 1 g a.i./ha, 10 DAT",80%
same,HER effect + SAF [%] (crop damage),"[3]; 21 DAT, HER dose 1 g a.i./ha",0%
same,Reduction [%],"[3]; 21 DAT, HER dose 1 g a.i./ha",100%
same,Reduction [Difference],"[3]; 21 DAT, HER dose 1 g a.i./ha",85
same,"HER effect [%] (crop damage, herbicide without safener)","[3]; 21 DAT, HER dose 1 g a.i./ha",85%
same,HER effect + SAF [%] (crop damage),"[3]; 21 DAT, HER dose 4 g a.i./ha",30%
same,Reduction [%],"[3]; 21 DAT, HER dose 4 g a.i./ha",68%
same,Reduction [Difference],"[3]; 21 DAT, HER dose 4 g a.i./ha",63
same,"HER effect [%] (crop damage, herbicide without safener)","[3]; 21 DAT, HER dose 4 g a.i./ha",93%
same,HER effect + SAF [%] (crop damage),"[3]; 21 DAT, HER dose 16 g a.i./ha",50%
same,Reduction [%],"[3]; 21 DAT, HER dose 16 g a.i./ha",47%
same,Reduction [Difference],"[3]; 21 DAT, HER dose 16 g a.i./ha",45
same,"HER effect [%] (crop damage, herbicide without safener)","[3]; 21 DAT, HER dose 16 g a.i./ha",95%
same,HER effect + SAF,[4]; HER 4 g a.i./ha post-emergence,50%
same,Reduction [%],[4]; HER 4 g a.i./ha post-emergence,46%
same,Reduction [Difference],[4]; HER 4 g a.i./ha post-emergence,43
same,HER effect + SAF,[4]; [12],70%
same,Reduction [%],[4]; [12],26%
same,Reduction [Difference],[4]; [12],25
same,HER effect,[4]; herbicide alone 4 g a.i./ha post-emergence,93%
same,HER effect,[4]; herbicide alone 16 g a.i./ha post-emergence,95%
C=CC1(C(=O)NC2C=C(C(=O)OCC#N)OC2)CC(c2cc(F)cc(F)c2)=NO1 (centres unmarked) [Example 1.91],HER effect + SAF,[1]; [13],0%
same,Reduction [%],[1]; [13],100%
same,Reduction [Difference],[1]; [13],70
same,HER effect + SAF,[1]; [14],20%
same,Reduction [%],[1]; [14],78%
same,Reduction [Difference],[1]; [14],70
same,HER effect + SAF,[1]; [15],50%
same,Reduction [%],[1]; [15],38%
same,Reduction [Difference],[1]; [15],30
same,HER effect,"[1]; herbicide alone 1.5 g a.i./ha, 21 DAT",70%
same,HER effect,"[1]; herbicide alone 6 g a.i./ha, 21 DAT",90%
same,HER effect,[1]; [16],80%
same,HER effect + SAF,[2]; [15],10%
same,Reduction [%],[2]; [15],67%
same,Reduction [Difference],[2]; [15],20
same,HER effect,[2]; [16],30%
same,HER effect + SAF [%] (crop damage),"[3]; 21 DAT, HER dose 1.5 g a.i./ha",10%
same,Reduction [%],"[3]; 21 DAT, HER dose 1.5 g a.i./ha",86%
same,Reduction [Difference],"[3]; 21 DAT, HER dose 1.5 g a.i./ha",60
same,"HER effect [%] (crop damage, herbicide without safener)","[3]; 21 DAT, HER dose 1.5 g a.i./ha",70%
same,HER effect + SAF [%] (crop damage),"[3]; 21 DAT, HER dose 6 g a.i./ha",20%
same,Reduction [%],"[3]; 21 DAT, HER dose 6 g a.i./ha",78%
same,Reduction [Difference],"[3]; 21 DAT, HER dose 6 g a.i./ha",70
same,"HER effect [%] (crop damage, herbicide without safener)","[3]; 21 DAT, HER dose 6 g a.i./ha",90%
same,HER effect + SAF [%] (crop damage),"[3]; 21 DAT, HER dose 24 g a.i./ha",10%
same,Reduction [%],"[3]; 21 DAT, HER dose 24 g a.i./ha",88%
same,Reduction [Difference],"[3]; 21 DAT, HER dose 24 g a.i./ha",70
same,"HER effect [%] (crop damage, herbicide without safener)","[3]; 21 DAT, HER dose 24 g a.i./ha",80%
same,HER effect + SAF,[4]; [17],10%
same,Reduction [%],[4]; [17],67%
same,Reduction [Difference],[4]; [17],20
same,HER effect,[4]; herbicide alone 24 g a.i./ha post-emergence,30%

# From patent publication US20230200390A1, “SELECTIVE HERBICIDES BASED ON SUBSTITUTED ISOXAZOLIN CARBOXAMIDES AND MEFENPYR-DIETHYL” (BAYER AKTIENGESELLSCHAFT, priority 2020, published 2023)
